Measurements from a melting point compilation (Tetko et al.; mined from patent text by program, amines drawn as free bases though some values may be those of a salt).

melting point [°C]	Compound
150	COCCOc1ccc(COC(=O)NS(=O)(=O)NCC2CC2)c(Oc2ncc(C(F)(F)F)cc2Cl)c1
142 to 143	Cc1ccccc1OC(Cc1ccc(OCCN(C)c2nc3ccccc3o2)cc1)C(=O)O (stereo not given)
97 to 98	CCCCn1nc(C)c(CC(=O)O)c1C
120 to 121	CCOC(=O)Cn1cc(C(=O)NCc2ccc(Cl)cc2Cl)c(OCC)n1
204 to 210	CCOC(=O)c1[nH]c2cc(C(F)(F)F)ccc2c1N
120	CCCO[C@@H](C)C(=O)Oc1ccc(-c2ccc(O)cc2)cc1
210	Fc1cccc(Cl)c1-c1c(Cl)cc(Cl)nc1Cl
85 to 86	O=C1C[C@@H]2CCCC[C@@H]2N1O (relative stereo)
154 to 156	CCCCCCCCCCCCCCCCNc1ccc(C(=O)NN)cc1
99	COC(OC)C(CC#N)C(C)(C)S(=O)(=O)c1ccc(C)cc1 (stereo not given)
173 to 174	NC(=O)N(O)CC#Cc1ccc(F)c(C2=N[C@H](c3ccccc3)CO2)c1
210 to 211	O=C(N[C@H](Cc1ccc(C(F)(F)F)cc1)[C@@H](O)c1ccc(F)cc1)c1ccc(F)c2ccccc12 (racemic)
152 to 155	O=C(O)C12CC=CCC1CSc1ccccc12 (stereo not given)
130 to 132	CCCc1nn(C)c2c(=O)n(CCOc3cccc(OC(C)(CC)C(=O)O)c3)c(C)nc12 (stereo not given)
134 to 136	COc1ccc(CNc2n[nH]cc2C(=O)O)cc1OC1CCCC1
85 to 86	COc1ccc2c(c1)C(=NOCCN1CCCC1)c1c-2cnc2ccccc12
228	Cc1c(C(=O)O)nc2c(=O)[nH]c3cc(S(C)(=O)=O)ccc3n12
119 to 120	CCCc1cc(Cl)c2oc(Cc3ccc(OC)cc3)c(C)c2c1OC(C)=O
185	CCC(Cc1c(I)cc(I)c(NC(=O)CNCCNCCN)c1I)C(=O)O (stereo not given)
95.5 to 96.5	CON(c1ccc([N+](=O)[O-])cc1Cl)S(=O)(=O)c1cccc(C(F)(F)F)c1
181 to 182	COc1ccc(NC(=O)c2ccccc2NS(=O)(=O)c2ccc(C)cc2)cc1Cl
205 to 206	CC(C)n1nc(-c2cc(C(=O)NCc3ccccc3)cnc2-c2ccccc2)ccc1=O

melting point [°C]	Compound
230 to 231	CC1CN(c2c(F)cc3c(=O)c(C(=O)O)cn(C4CC4)c3c2F)CC1NC(=O)OC(C)(C)C (stereo not given)
76.5 to 78	COC(CNC(=O)c1cccc(C(=O)NCC(OC)OC)c1)OC
150 to 152	Cc1cc(Oc2ncc(C(F)(F)F)cc2Cl)nn1C(=O)Nc1ccc(Cl)c(Cl)c1
192 to 193	Cn1ncnc1-c1oc2cccc(CCc3ccc(F)cc3)c2c(=O)c1O
157 to 158	CN1C(=O)CC2(CC(=O)N(Cc3ccccc3)C2)C1=O (stereo not given)
114	COc1ccc(CNc2nc(CCCC(=O)O)nc3sc(Cl)cc23)cc1Cl
233	COc1ccc2cc(C(=O)NCc3cc([N+](=O)[O-])cc([N+](=O)[O-])c3)c(=O)oc2c1
79 to 81	N#CC(C#N)=C1N(CCCN2CCc3ccccc3C2)CCN1CCN1CCCCC1
170 to 173	CS(=O)c1ccc(C(CC2CCCC2)C(=O)Nc2nccs2)cc1 (stereo not given)
101 to 102	Clc1cc(C(Cl)(Cl)Cl)nc(C(Cl)(Cl)Cl)c1
205 to 207	Cc1cccc(N2CCN([C@@H](Cc3ccc(OCCc4nc(-c5ccccc5)oc4C)cc3)C(=O)O)CC2)c1
197 to 199	CC[C@H](C)[C@@H](CO)NC(=O)[C@H](Cc1c[nH]cn1)NC(=O)[C@H](Cc1cccc2ccccc12)NC(=O)OCc1ccccc1
168 to 170	Cc1ccc(C)c(C2C(=O)CC(C)(C)CC2=O)c1
140 to 142	Cn1c([N+](=O)[O-])cnc1C1=NOC2OCCCC12 (stereo not given)
191 to 192	O=C(c1ccc(Cl)cc1)N1CCc2cc(S(=O)(=O)N3CCN(c4cccc(Cl)c4)CC3)ccc21
255	CN(C)C=Cc1ccc([N+](=O)[O-])c2[nH]ncc12
82 to 83	COC(=O)C(=O)c1ccc(OCCOc2cc(OC)c(OC)c(OC)c2)cc1
173 to 175	COc1ccc2c(Cc3c(Cl)cncc3Cl)nncc2c1
216	CCCCN(CCCC)c1ccc2c(c1)O/C(=C1/Oc3cc(N(CCCC)CCCC)ccc3C1=O)C2=O
131 to 133	CC(C)(C)[Si](C)(C)OCCCC(=O)c1cc(-c2ccc(S(C)(=O)=O)cc2)n(C2CCCCC2)n1
> 275	Cc1ccc(Nc2nc(C)c(-c3nc4ccccc4c(=O)n3-c3ccc(Cl)cc3)s2)cc1
79 to 80	Cc1nnc(S(=O)c2c(C)cccc2C)o1 (stereo not given)

melting point [°C]	Compound
52 to 53	CCCCn1ccc2cc(-c3ccc(C(F)(F)F)cc3)ccc21
66 to 68	Cc1nc(CSc2cccc(Cl)c2Cl)no1
293 to 295	O=C1Cc2c(cccc2NC(=O)c2cccn(-c3ccc(F)cc3)c2=O)N1
115	CCOCC1=C(C(=O)OCC)C(c2ccccc2Cl)C(C(=O)OCC)=C(C)N1 (stereo not given)
141 to 142	CCCn1c(=O)c2[nH]c([C@@H](C)Cc3ccccc3)nc2n(CCC)c1=O
211 to 213	COc1ccc2c(=O)c3c(Cl)ccc([N+](=O)[O-])c3oc2c1
149 to 157	c1ccc(C2CCN(CCC(c3ccccc3)(c3ccccc3)c3nnn[nH]3)CC2)cc1
90 to 91	O=Cc1ccc(-c2ccccc2)cc1Cl
154 to 155	CC(=O)N1CCN=C1Nc1cc(-c2ccccc2)nn1C
124 to 128	CCCCCCCCCCC(O)CNCCCCCCNCC(O)CCCCCCCCCC (stereo not given)
157	CC(C)(C)NC(=O)Oc1ccc(-c2nn(C3CCCC3)c3c(F)cccc23)cc1
98 to 102	CSCC(C)(C)C(=O)N(C)c1cnc(-c2cncc(F)c2)s1
205 to 208	Cn1c(=O)n(S(=O)(=O)c2ccc(Cl)cc2)c(=O)c2ccc(Cl)cc21
193 to 194	COc1ccc(C2=CC(C3CCN(c4ncnc5c4cnn5C)CC3)C(=O)C3CC=CCC23)cc1OC (stereo not given)
174	CCn1nnc(-c2cccc(-c3ccnc4c(C(=O)c5cccs5)cnn34)c2)n1
108 to 109	OCc1cc2ccccc2c(-c2ccnc(Br)c2)c1CO
148 to 150	Cc1nsc(Br)c1S(N)(=O)=O
253 to 255	O=C1CCC(N2C(=O)c3ccc(CNC(=O)c4ccc(Cl)c(Cl)c4)cc3C2=O)C(=O)N1 (stereo not given)
40 to 42	C[C@H]1C[C@@](O)(c2cnc(Cl)s2)CCO1
151 to 153	c1ccc2c(c1)nc1n2CCC(CN2CCNCC2)S1 (stereo not given)

Compound	melting point [°C]
Cc1ncc2n1-c1ccc(Br)cc1C(c1ccccn1)=NC2	189 to 190
NC(=O)c1cc2cc(N3CCNCC3)ccc2o1	252 to 255
CCCN1CCC23c4cccc(O)c4OC2C2CCC3(C1)C(CSC)C2 (stereo not given)	152 to 153
CC1(C)CCC(C)(C)c2cc(-c3cc(-c4ccc(C(=O)O)cc4)ccc3C(=O)O)ccc21	343
CN1CCN(c2cc3nc(C(C)(C)C)sc3cc2N)CC1	130
COc1cc(C2C3=C(COC3=O)N(c3cc(OC)c(OC)c(OC)c3)c3cc4c(cc32)OCO4)cc(OC)c1OC (stereo not given)	> 260
